In the experiment the target is 5-hydroxytryptamine receptor 7 (Cavia porcellus, UniProt P50407).
5-hydroxytryptamine receptor 7, sequence (P50407 whole entry): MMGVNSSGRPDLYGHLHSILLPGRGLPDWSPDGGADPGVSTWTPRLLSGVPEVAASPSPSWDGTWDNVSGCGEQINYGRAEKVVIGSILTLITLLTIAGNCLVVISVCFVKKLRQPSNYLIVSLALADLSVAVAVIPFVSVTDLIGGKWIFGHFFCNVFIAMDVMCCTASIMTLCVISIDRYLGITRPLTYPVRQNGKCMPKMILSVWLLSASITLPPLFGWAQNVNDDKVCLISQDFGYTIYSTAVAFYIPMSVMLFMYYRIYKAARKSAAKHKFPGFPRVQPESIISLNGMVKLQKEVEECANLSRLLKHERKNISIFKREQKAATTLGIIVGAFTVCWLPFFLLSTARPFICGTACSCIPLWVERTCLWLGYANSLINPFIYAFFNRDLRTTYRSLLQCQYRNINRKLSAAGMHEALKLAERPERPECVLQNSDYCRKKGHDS
What is called Ki is a dissociation constant, usually derived from enzyme kinetics or from competition with a known ligand. A lower Ki goes with higher affinity. In the case of `CNS(=O)(=O)Cc1ccc2[nH]cc(CCN(C)C)c2c1` [Sumax], the affinity, expressed as Ki, was 251 nM.
To `CC[C@@H](CO)NC(=O)[C@@H]1C=C2c3cccc4c3c(cn4C)C[C@H]2N(C)C1` belongs 39.8 nM.
The same measure for `CN(C)CCc1c[nH]c2ccc(O)cc12` [3-[2-(dimethylamino)ethyl]indol-5-ol]: 19.9 nM; for `CCCN(CCC)C1CCc2cccc(O)c2C1` (configuration not stated): 50.1 nM.
To `COc1ccc2[nH]cc(CCN)c2c1` [tryptamine, 5-Methoxy] belongs 1 nM; to `O=C(CCCN1CCC2(CC1)C(=O)NCN2c1ccccc1)c1ccc(F)cc1` [8-[4-(4-fluorophenyl)-4-oxidanylidene-butyl]-1-phenyl-1,3,8-triazaspiro[4.5]decan-4-one], 100 nM.
Compound `NCCc1c[nH]c2ccc(O)cc12` [[3H]-5-HT] came in with an inhibitory constant (Ki) of 1 nM.
